Converted amounts (≈) assume the structure as drawn. “Also recorded” adds a separate entry of the source. Where two headings read alike, the source gives them in different places.
Legend:
[1] = system: M. smegmatis transformed with cloning vector (MnoI strain); experiment: microbe, parasite or virus in culture; format: cell-based, Mycobacterium smegmatis; details: Mycolicibacterium smegmatis
[2] = target: T1, M. tuberculosis topoisomerase I (MtbTopI) (Mycobacterium tuberculosis, UniProt P9WG49); experiment: MtbTopI relaxation inhibition assay; format: biochemical; details: 12.5 nM enzyme, supercoiled pBAD/Thio plasmid, 37 °C 30 min, agarose gel
T1 construct: made in house

[3] = target: T2, human topoisomerase I (hTOPI) (Homo sapiens, UniProt P11387); experiment: Human topoisomerase I relaxation inhibition assay; format: biochemical; details: for IC50: 0.5 U enzyme, supercoiled plasmid, 37 °C 30 min; for Selectivity Score: hTOPI IC50/MtbTopI IC50
T2 construct: purchased TopoGen
T2 sequence (P11387 1-765): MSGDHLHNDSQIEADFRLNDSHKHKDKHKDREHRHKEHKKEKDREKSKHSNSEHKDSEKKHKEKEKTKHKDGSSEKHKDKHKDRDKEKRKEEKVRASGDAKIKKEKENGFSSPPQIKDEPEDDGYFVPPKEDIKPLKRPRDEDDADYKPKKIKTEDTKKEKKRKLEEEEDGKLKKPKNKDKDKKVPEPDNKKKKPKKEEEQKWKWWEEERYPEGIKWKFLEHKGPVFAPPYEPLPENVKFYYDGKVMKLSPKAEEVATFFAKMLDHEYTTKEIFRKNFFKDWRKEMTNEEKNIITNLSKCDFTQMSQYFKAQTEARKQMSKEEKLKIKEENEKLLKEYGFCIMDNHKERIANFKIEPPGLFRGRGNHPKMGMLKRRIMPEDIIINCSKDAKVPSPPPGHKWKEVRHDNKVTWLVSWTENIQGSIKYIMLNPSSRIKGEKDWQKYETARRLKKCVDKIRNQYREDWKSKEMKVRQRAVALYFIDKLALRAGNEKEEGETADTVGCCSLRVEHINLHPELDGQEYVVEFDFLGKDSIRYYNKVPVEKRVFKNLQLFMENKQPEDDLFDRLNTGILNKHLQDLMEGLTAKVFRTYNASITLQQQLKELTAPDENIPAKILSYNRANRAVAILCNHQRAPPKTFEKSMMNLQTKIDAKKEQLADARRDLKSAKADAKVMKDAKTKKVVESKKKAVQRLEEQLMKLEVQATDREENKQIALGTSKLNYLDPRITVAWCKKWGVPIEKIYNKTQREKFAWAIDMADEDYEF
Procedure: Human topoisomerase I assays were carried out in a buffer containing 10 mM Tris-HCl, pH 8.0, 150 mM NaCl, 0.1% BSA, 0.1 mM spermidine, and 5% glycerol. The enzyme (from TopoGen) was diluted in the above buffer and aliquoted into 10 µL samples such that 0.5U was present in each. 0.5 µL of compound at various concentrations was added before the addition of 150 ng of purified pBAD/Thio purified plasmid DNA for a final volume of 20 µL. The samples were incubated for 30 minutes at 37 °C before stopping by the addition of 4 µL of buffer containing 5% SDS, 0.25% bromophenol blue, and 25% glycerol. The samples were analyzed by gel electrophoresis as previously described[23],[38],[39]. The experiments were replicated twice.

E. coli topoisomerase I = E. coli topoisomerase I (Escherichia coli, UniProt P06612); experiment: E. coli topoisomerase I relaxation inhibition assay; format: biochemical; details: for Inhibition of E. coli topoisomerase I relaxation activity (in words): Supplementary Fig. S2
E. coli DNA gyrase = target: T3, E. coli DNA gyrase (Escherichia coli, UniProt P0AES4+P0AES6); experiment: DNA gyrase supercoiling inhibition assay; format: biochemical; details: for IC50: 2 U enzyme, relaxed plasmid, 37 °C 30 min
T3 construct: purchased New England BioLabs
Procedure: E. coli DNA gyrase was obtained from New England BioLabs. Two units of the enzyme were added to a reaction buffer provided by the manufacturer (35 mM Tris-HCl, pH 8.0, 4 mM MgCl2, 24 mM KCl, 2 mM DTT, 1.75 mM ATP, 5 mM spermidine, 0.1 mg/mL BSA, and 6.5% glycerol). 0.5 µL of the compounds dissolved in DMSO or the solvent alone were added to the enzyme mixture. 300 ng of relaxed covalently closed plasmid DNA was then added for a final volume of 20 µL. The reactions were incubated for 30 minutes at 37 °C before termination by the addition of 4 µL of the SDS stop buffer. The samples were then loaded into a 1% agarose gel and run at 25 V overnight. The experiments were replicated twice.

human topoisomerase I = target: T4, human topoisomerase I (Homo sapiens, UniProt P11387); experiment: Gel electrophoresis with ethidium bromide of human topoisomerase I reaction products (nicked DNA); format: biochemical; details: gel electrophoresis in the presence of ethidium bromide
T4 construct: purchased TopoGen
T4 sequence (P11387 1-765): T2 sequence (P11387 1-765)

[4] = 48 h, read-out: MnoI Growth Inhibition (MIC)
[5] = read-out: MnoI Growth Inhibition with TZ (MIC)

E. coli topoisomerase I, sequence (P06612 whole entry): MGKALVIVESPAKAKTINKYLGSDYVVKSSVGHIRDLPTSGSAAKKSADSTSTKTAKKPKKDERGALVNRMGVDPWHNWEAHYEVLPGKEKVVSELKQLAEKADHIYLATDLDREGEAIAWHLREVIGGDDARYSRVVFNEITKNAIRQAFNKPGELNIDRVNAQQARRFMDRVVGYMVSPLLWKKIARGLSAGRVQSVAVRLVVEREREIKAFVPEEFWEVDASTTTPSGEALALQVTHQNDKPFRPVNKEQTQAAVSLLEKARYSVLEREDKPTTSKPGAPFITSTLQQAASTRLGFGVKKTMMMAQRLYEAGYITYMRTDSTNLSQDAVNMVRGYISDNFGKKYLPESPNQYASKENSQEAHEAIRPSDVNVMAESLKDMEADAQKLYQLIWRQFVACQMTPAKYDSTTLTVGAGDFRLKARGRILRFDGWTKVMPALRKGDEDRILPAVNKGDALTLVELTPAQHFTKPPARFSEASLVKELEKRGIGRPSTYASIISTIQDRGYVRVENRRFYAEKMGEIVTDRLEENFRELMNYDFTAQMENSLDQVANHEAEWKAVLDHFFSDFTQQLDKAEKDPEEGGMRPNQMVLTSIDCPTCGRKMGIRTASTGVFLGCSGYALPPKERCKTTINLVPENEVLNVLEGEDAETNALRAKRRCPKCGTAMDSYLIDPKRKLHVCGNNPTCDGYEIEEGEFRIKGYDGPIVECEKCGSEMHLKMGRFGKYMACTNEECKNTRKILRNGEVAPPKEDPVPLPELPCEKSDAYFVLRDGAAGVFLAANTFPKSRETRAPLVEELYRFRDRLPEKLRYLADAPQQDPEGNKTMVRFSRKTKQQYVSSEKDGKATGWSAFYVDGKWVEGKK
T1 sequence (P9WG49 whole entry): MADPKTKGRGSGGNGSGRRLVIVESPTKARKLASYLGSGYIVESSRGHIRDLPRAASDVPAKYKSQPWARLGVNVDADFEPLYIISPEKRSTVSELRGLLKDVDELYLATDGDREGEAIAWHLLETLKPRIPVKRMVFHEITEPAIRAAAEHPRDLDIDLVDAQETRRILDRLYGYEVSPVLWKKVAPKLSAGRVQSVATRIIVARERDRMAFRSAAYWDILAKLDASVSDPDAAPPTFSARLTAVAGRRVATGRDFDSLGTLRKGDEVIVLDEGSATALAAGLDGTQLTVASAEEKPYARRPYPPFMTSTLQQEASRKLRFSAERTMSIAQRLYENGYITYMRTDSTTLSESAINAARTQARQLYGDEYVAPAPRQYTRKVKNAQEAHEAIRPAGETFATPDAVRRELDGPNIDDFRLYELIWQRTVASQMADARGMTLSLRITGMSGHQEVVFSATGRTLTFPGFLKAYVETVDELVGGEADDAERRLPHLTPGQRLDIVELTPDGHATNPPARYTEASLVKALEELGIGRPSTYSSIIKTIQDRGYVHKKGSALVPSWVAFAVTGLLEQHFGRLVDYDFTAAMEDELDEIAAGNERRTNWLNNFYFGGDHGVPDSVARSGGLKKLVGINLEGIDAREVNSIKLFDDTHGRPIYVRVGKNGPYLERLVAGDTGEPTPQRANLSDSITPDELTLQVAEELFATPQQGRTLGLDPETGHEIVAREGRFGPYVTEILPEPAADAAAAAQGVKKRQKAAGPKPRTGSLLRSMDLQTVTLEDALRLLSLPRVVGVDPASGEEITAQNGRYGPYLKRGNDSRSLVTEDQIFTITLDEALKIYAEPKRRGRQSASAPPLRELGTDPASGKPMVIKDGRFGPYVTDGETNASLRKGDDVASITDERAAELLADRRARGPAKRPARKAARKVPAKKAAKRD
T3 sequence (P0AES4 whole entry, one chain of several): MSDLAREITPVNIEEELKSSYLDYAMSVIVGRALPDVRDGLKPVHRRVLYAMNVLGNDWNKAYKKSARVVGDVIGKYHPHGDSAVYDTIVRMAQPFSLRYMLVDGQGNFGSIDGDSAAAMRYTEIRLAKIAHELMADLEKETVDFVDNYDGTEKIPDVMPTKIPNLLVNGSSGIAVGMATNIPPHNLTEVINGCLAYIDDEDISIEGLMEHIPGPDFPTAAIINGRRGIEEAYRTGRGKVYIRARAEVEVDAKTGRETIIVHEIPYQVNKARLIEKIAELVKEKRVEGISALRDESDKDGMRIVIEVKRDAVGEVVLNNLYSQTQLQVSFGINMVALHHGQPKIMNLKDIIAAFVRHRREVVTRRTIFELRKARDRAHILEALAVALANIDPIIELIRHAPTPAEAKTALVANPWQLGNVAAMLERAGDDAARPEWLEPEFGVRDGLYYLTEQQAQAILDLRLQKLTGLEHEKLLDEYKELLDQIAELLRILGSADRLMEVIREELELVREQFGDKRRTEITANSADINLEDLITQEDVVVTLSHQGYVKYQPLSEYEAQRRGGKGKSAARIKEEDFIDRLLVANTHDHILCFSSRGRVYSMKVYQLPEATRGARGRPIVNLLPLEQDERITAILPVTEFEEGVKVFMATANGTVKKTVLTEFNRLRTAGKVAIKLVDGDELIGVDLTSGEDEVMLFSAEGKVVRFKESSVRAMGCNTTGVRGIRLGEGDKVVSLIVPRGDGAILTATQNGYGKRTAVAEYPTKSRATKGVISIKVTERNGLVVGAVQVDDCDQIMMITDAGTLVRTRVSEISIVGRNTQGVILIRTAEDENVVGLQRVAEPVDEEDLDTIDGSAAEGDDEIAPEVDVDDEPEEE

| SMILES | MIC [1, 4] [µM] | MIC [1, 5] [µM] | IC50 [2] [µM] | IC50 [3] [µM] | Selectivity Score [3] | Inhibition of E. coli topoisomerase I relaxation activity (in words) (E. coli topoisomerase I) | IC50 (E. coli topoisomerase I; assay conditions as for MtbTopI) [µM] | Inhibition of E. coli DNA gyrase supercoiling activity (in words) (E. coli DNA gyrase; up to 500 µM) | IC50 (E. coli DNA gyrase) [µM] | Formation of nicked DNA by human topoisomerase I (human topoisomerase I) |
| --- | --- | --- | --- | --- | --- | --- | --- | --- | --- | --- |
| Cc1c(C(=O)N2CCC(c3nnc(-c4nccc5ccccc45)o3)CC2)oc2ccccc12 [Compound 2] | 188 (≈ 82.2 µg/mL) | 31.3 (≈ 13.7 µg/mL) | 62.5 | > 250 | >4 | – | – | – | – | – |
| COc1ccc2c(c1)NC1(CCN(C(=O)Cc3c[nH]c4ccccc34)CC1)NS2(=O)=O [Compound 3] | 250 (≈ 110 µg/mL) | 31.3 (≈ 13.8 µg/mL) | 62.5 | > 250 | >4 | – | – | – | – | – |
| Cc1c(C(=O)N2CCC3(CC2)CC(O)(c2ccc(F)cc2)CO3)oc2ccccc12 (centres unmarked) [Compound 4] | – | – | 125 | > 250 | >2 | – | – | – | – | – |
| O=C(c1ccc2c(c1)OCO2)N1CCC(Cn2nc(-c3ccc(F)cc3)ccc2=O)CC1 [Compound 5] | – | – | 250 | – | – | – | – | – | – | – |
| O=C(CN1C(=O)C2C3CCC(C3)C2C1=O)N1CCC2(CC1)Nc1ccccc1-n1cccc12 (centres unmarked) [Compound 6] | – | – | 500 | – | – | – | – | – | – | – |
| Cc1ccc(CN2C[C@]34C=C[C@H](O3)C(C(=O)N3CCn5cccc5C3)C4C2=O)cc1C (some centres unmarked) [Compound 7] | > 500 | 500 (≈ 209 µg/mL) | 2 | > 500 | – | inhibited | 15.6 to 31.3 | no inhibition; also recorded: does not inhibit | – | – |
| Cc1cc2oc(C(=O)N3CCC(c4nc5ccccc5[nH]4)CC3)c(C)c2cc1C [Compound 8] | > 500 | 23.4 (≈ 9.07 µg/mL) | 62.5 | > 500 | – | inhibited | – | – | > 500 | – |
| Cc1ccc2[nH]c(C3CCN(C(=O)c4oc5ccc(C)cc5c4C)CC3)nc2c1 [Compound 9] | 125 (≈ 48.4 µg/mL) | 23.4 (≈ 9.07 µg/mL) | 62.5 | > 500 | – | inhibited | – | – | > 500 | – |
| Cc1ccc2oc(C(=O)N3CCC(O)(c4cccc(C(F)(F)F)c4)CC3)c(C)c2c1 [Compound 10] | 125 (≈ 52.2 µg/mL) | 23.4 (≈ 9.77 µg/mL) | 62.5 | > 500 | – | – | – | – | > 500 | – |
| Cc1c(C(=O)N2CCCCC2CCc2ccc(O)cc2)oc2c(F)cccc12 (centres unmarked) [Compound 11] | 500 (≈ 191 µg/mL) | 46.9 (≈ 17.9 µg/mL) | 62.5 | 250 | – | – | – | – | > 500 | – |
| Cc1ccc2c(C)c(C(=O)N3CCC4(CC(=O)c5ccccc5O4)C3)oc2c1 (centres unmarked) [Compound 12] | > 500 | 500 (≈ 188 µg/mL) | 62.5 | > 500 | – | – | – | – | > 500 | – |
| CC[C@@]1(O)C(=O)OCc2c1cc1n(c2=O)Cc2cc3ccccc3nc2-1 [camptothecin] | – | – | – | – | – | – | – | – | – | increased nicking of DNA by human topoisomerase I significantly |

Reference: article PMC5780498, “Discovery of novel bacterial topoisomerase I inhibitors by use of in silico docking and in vitro assays” (Scientific Reports, 2018)
